Assay results published in the supplement of paper PMC10307832.

Experiments:
Test in all cases: relative viability (nuclei count vs DMSO), 5 days (fraction); higher = more cells survive
[1] = compound: NCC(=O)Nc1ccc(-n2nc(C(F)(F)F)cc2-c2ccc3c(ccc4ccccc43)c2)cc1 + CS(=O)(=O)N1CCN(Cc2cc3nc(-c4cccc5[nH]ncc45)nc(N4CCOCC4)c3s2)CC1 [Pictilisib] (partner 1 µM)
How it was run: (§1)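 Values are medians from duplicate plates. Each reflects relative viability, defined as the nuclei count of treated wells over that of vehicle wells. Lung cancer cell lines in 1536-well plates were pin-tool dosed one day after seeding with one drug alone or with a fixed anchor-drug dose plus five library-drug doses (not always all listed) in √10 steps, then fixed, stained and imaged at 4× after 5 days.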

[2] = compound: C1CSC2=C(C(=O)N1)SC3=C2C=C(C=C3)O [kb NB 142-70] + Cc1nc(Nc2ncc(C(=O)Nc3c(C)cccc3Cl)s2)cc(N2CCN(CCO)CC2)n1 [Dasatinib] (partner 0.075 µM)
How it was run: as §1

[3] = compound: NCC(=O)Nc1ccc(-n2nc(C(F)(F)F)cc2-c2ccc3c(ccc4ccccc43)c2)cc1 + COc1cc2c(Oc3ccc(NC(=O)C4(C(=O)Nc5ccc(F)cc5)CC4)cc3F)ccnc2cc1OCCCN1CCOCC1 [Foretinib] (partner 0.25 µM)
How it was run: as §1

[4] = compound: C1CSC2=C(C(=O)N1)SC3=C2C=C(C=C3)O [kb NB 142-70] + CC(=O)c1c(C)c2cnc(Nc3ccc(N4CCNCC4)cn3)nc2n(C2CCCC2)c1=O [Palbociclib] (partner 0.5 µM)
How it was run: as §1

Row | Cell Line | relative viability ([1]; first compound 0.02 µM) | relative viability ([1]; first compound 0.06325 µM) | relative viability ([1]; first compound 0.2 µM) | relative viability ([1]; first compound 0.6325 µM) | relative viability ([1]; first compound 2 µM) | relative viability ([2]; first compound 0.1 µM) | relative viability ([2]; first compound 1 µM) | relative viability ([2]; first compound 3.162 µM) | relative viability ([3]; first compound 0.02 µM) | relative viability ([3]; first compound 0.06325 µM) | relative viability ([3]; first compound 0.2 µM) | relative viability ([3]; first compound 0.6325 µM) | relative viability ([3]; first compound 2 µM) | relative viability ([4]; first compound 0.1 µM) | relative viability ([4]; first compound 1 µM) | relative viability ([4]; first compound 3.162 µM)
1 | NCI-H23 | 0.436 | 0.511 | 0.557 | 0.489 | 0.424 | 0.792 | 0.713 | 0.287 | 1.05 | 0.998 | 1 | 0.975 | 0.987 | 0.409 | 0.471 | 0.28
2 | HCC-366 | 0.147 | 0.205 | 0.174 | 0.172 | 0.141 | 0.634 | 0.498 | 0.378 | 0.918 | 0.911 | 0.984 | 0.924 | 0.992 | 0.404 | 0.477 | 0.356
3 | EMC-BAC-2 | 0.509 | 0.558 | 0.558 | 0.545 | 0.506 | 0.363 | 0.305 | 0.235 | 0.957 | 0.966 | 1.02 | 1.09 | 1.05 | 0.524 | 0.553 | 0.516
4 | NCI-H2405 | 0.415 | 0.494 | 0.499 | 0.375 | 0.481 | 0.205 | 0.208 | 0.224 | 1.12 | 1.07 | 1.13 | 1.03 | 1.11 | 0.552 | 0.563 | 0.499
5 | NCI-H358 | 0.43 | 0.309 | 0.322 | 0.383 | 0.341 | 0.15 | 0.109 | 0.127 | 0.755 | 0.721 | 0.747 | 0.683 | 0.816 | 0.127 | 0.136 | 0.0896
6 | NCI-H1944 | 0.349 | 0.359 | 0.326 | 0.35 | 0.331 | 0.207 | 0.243 | 0.201 | 0.795 | 0.841 | 0.827 | 0.888 | 1.01 | 0.334 | 0.358 | 0.376
7 | EPLC-272H | 0.28 | 0.378 | 0.285 | 0.344 | 0.319 | 0.417 | 0.34 | 0.149 | 0.686 | 0.688 | 0.752 | 0.581 | 0.79 | 0.324 | 0.329 | 0.28
8 | NCI-H1915 | 0.79 | 1.05 | 0.922 | 0.914 | 0.999 | 0.323 | 0.339 | 0.248 | 1.12 | 1.12 | 1.09 | 1.06 | 1.11 | 0.498 | 0.52 | 0.343
9 | NCI-H322M | 0.516 | 0.515 | 0.521 | 0.523 | 0.483 | 0.24 | 0.278 | 0.269 | 1.2 | 0.945 | 0.97 | 0.912 | 1.04 | 0.541 | 0.511 | 0.505
10 | NCI-H2228 | 0.473 | 0.471 | 0.355 | 0.299 | 0.481 | 0.568 | 0.542 | 0.405 | 1.05 | 0.974 | 0.889 | 0.97 | 0.972 | 0.819 | 0.719 | 0.446
11 | NCI-H647 |  | 0.479 | 0.548 | 0.406 | 0.496 | 0.185 | 0.189 | 0.119 | 1.23 | 1.32 | 1.26 | 1.12 | 1.12 | 0.289 | 0.372 | 0.414
12 | SK-MES-1 | 0.382 | 0.313 | 0.334 | 0.355 | 0.42 | 0.422 | 0.49 | 0.337 | 0.955 | 0.896 | 0.995 | 0.959 | 1.06 | 0.343 | 0.424 | 0.402
13 | NCI-H2170 | 0.233 | 0.325 | 0.319 | 0.328 | 0.323 | 0.498 | 0.475 | 0.4 | 0.995 | 0.975 | 1.04 | 0.985 | 1.02 | 0.413 | 0.44 | 0.392
14 | NCI-H2085 | 0.483 | 0.443 | 0.436 | 0.42 | 0.469 | 0.252 | 0.198 | 0.274 | 1.02 | 1.05 | 1.07 | 0.812 | 1.1 | 0.466 | 0.452 | 0.367
15 | SW 1573 | 0.513 | 0.545 | 0.493 | 0.514 | 0.486 | 0.491 | 0.458 | 0.188 | 0.986 | 0.867 | 0.87 | 0.895 | 0.905 | 0.418 | 0.376 | 0.208
16 | NCI-H727 | 0.427 | 0.45 | 0.406 | 0.362 | 0.533 | 0.427 | 0.354 | 0.272 | 0.912 | 0.92 | 1.21 | 1.07 | 1.04 | 0.681 | 0.653 | 0.678
17 | NCI-H441 | 0.469 | 0.441 | 0.469 | 0.366 | 0.575 | 0.634 | 0.575 | 0.366 | 0.91 | 1.03 | 0.879 | 0.85 | 0.97 | 0.237 | 0.209 | 0.169
18 | LOU-NH91 | 0.497 | 0.622 | 0.49 | 0.476 | 0.537 | 0.486 | 0.508 | 0.556 | 0.994 | 0.959 | 0.965 | 0.929 | 1.01 | 0.494 | 0.536 | 0.417
